Measurements as given in patent US20260200926A1, “TREM2 MODULATORS” (Muna Therapeutics ApS, priority 2022, published 2026).
pEC50: −log10 of the molar value.

Molecular target: T1, Human TREM2 (Homo sapiens, UniProt Q9NZC2)
T1 construct: expressed in transfected cells
Assay: Human TREM2 activity: cellular phosphorylation of Syk (AlphaLISA SureFire Ultra p-SYK) in HEK293/DAP12+TREM2 stable cell line
Type: cell-based
Details: for Emax: HEK293, maximal response relative to reference agonist example 1B (remaining examples), read-out: Emax; for pEC50: phospho-Syk AlphaLISA signal, HEK293/DAP12+TREM2 cells, concentration giving 50% of maximal response, read-out: EC50
Source text: Human TREM2, in vitro Measurement of Triggering Receptor Expressed on Myeloid Cells 2 activity using cellular phosphorylation of Spleen Tyrosine Kinase (“Syk”) Assay
HEK-293 cells were co-transfected with separate plasmids encoding TREM2 and DAP12 to generate a stable cell line. After antibiotic selection, functional clone pool analysis and two successive limiting dilutions, the final clone “HEK293/DAP12+TREM2” underwent a qPCR analysis and a pharmacological validation.
TREM2 signaling through DAP12 was monitored in the HEK293/DAP12+TREM2 stable cell line by measuring the phosphorylation levels of the Syk kinase using the commercially available AlphaLISA SureFire Ultra p-SYK (Tyr525/526) Assay Kit (PerkinElmer #ALSU-PSYK), based on the Perkin Elmer AlphaScreen/AlphaLISA technology.
Compounds are transferred to the test plate and tested in full dose response, 8 concentrations in quadruplicate data points. Compound serial dilutions were performed at Cybi-Felix instrument in 100% DMSO and the dose response curves were assembled in automated fashion in 384MPT at Hamilton STARlet instrument. All the stock solutions were prepared at 20 mM in 100% DMSO. For compounds testing, the starting concentration was 100 μM, dilution steps 1:6. […] Finally, a 384MPT reformatted for all compounds at 8 concentrations, quadruplicates, was used as “mother to child” process with a CyBi®-Well dispenser in which 1 μL of each compound was moved into a destination plate pre-filled with 65.6 μL of EMEM cell culture medium (BIOWHITTAKER_cat.BE12-125F), thus obtaining 3× concentrated compounds working solution. In columns 1-2 and 23-24 the control wells were added. In particular, dose response curves of a reference control agonist were included in column 1 and 24 as reference control agonist (Reference control agonists used include Human TREM2 polyclonal Antibody AF1828: R&D Systems; Human TREM2 monoclonal Antibody MAB1828: R&D Systems). The dose response curves were tested starting at 30 μM, dilution step 1:6. Both “source” compound plate and “destination” compound plate were barcoded and a relationship between the two plates was thus generated.
HEK293/DAP12+TREM2 cells were cultured in EMEM medium supplemented with IX Penicillin/Streptomycin (BIOWHITTAKER_cat.DE17-602E), ULTRAGLUTAMINE I 200 mM, 10% Fetal Bovine Serum plus antibiotics referred to as “HEK293 Culture Medium”. The day before the experiment, cells were detached by gentle wash with DPBS, followed by 5 min incubation at 37° C. with Trypsin solution. Cells were then diluted in HEK293 Culture Medium without antibiotics, counted and seeded into 384-well poly-D-Lysine coated microplates black/clear bottom (GREINER 781946) at a density of 10,000 cells/well in 25 μL/well by the use of a MATRIX WellMate dispenser. Plates were placed into a humidified cell culture incubator at 37° C. with 5% CO2 until the experimental day. 20-24 hours after seeding mature medium was removed and replaced with 10 μL/well of EMEM cell medium supplemented with 0.1% Pluronic F-68 non-ionic surfactant (Thermofisher, 24040032), referred to as “Assay Buffer”, using the CyBi®-Well instrument. Then 5 μL/well of Assay Buffer containing 3× concentrated test compounds or the reference control agonist (in 0.5% final DMSO concentration) were added to the cells with the CyBi®-Well instrument. Cell plates were incubated for 30 min into a humidified cell culture incubator at 37° C. with 5% CO2·, then the medium was removed by manually discard. 20 μL/well of lysis buffer were dispensed using the CyBi®-Well instrument and plates were incubated for 10 min at room temperature on a plate shaker (350 rpm). Then, 10 μL/well of lysate were transferred to the Alpha plates. The CyBi®-Well instrument was used to dispense 5 μL/well of AlphaLISA Acceptor Bead Solution in IX Immunoassay buffer (Perkin Elmer AL000F). Then the plates were sealed with Heat sealing foil, shaked for 2 minutes (350 rpm) and incubated for 1 hour at room temperature.

T1 sequence (Q9NZC2 19-230): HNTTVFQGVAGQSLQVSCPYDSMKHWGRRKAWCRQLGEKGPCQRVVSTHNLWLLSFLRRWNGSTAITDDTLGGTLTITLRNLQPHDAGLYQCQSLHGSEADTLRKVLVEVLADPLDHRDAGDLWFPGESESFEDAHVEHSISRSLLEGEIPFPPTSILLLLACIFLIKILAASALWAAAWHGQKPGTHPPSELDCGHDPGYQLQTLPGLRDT
T1 sequence (O43914 22-113 partner): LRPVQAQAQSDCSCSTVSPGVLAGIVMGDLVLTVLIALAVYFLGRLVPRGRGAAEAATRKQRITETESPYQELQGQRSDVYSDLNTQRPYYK

| Emax | pEC50 | Compound |
| --- | --- | --- |
| < 75% | 6.00 to 7.00 | Cc1nc2c(-c3ccc(Cl)cc3F)nc([C@@]34CCO[C@@H](c5cnn(C6CC6)c5)[C@@H]3C4)nc2c(=O)n1C (single isomer, unassigned) [Example 116B] |
| 75 to 110% | 7.00 to 8.00 | Cc1nc2c(-c3ccc(Cl)cc3F)cc(N3C[C@@H](c4cnn(C)c4)OC(C)(C)C3)cc2c(=O)n1C (single isomer, unassigned) [Example 117A] |
| < 75% | 6.00 to 7.00 | Cc1nc2c(-c3ccc(Cl)cc3F)cc(N3C[C@H](c4cnn(C)c4)OC(C)(C)C3)cc2c(=O)n1C (single isomer, unassigned) [Example 117B] |
| 75 to 110% | 7.00 to 8.00 | Cc1nc2c(-c3ccc(C(F)(F)F)cc3F)cc([C@@H]3CCO[C@H](c4cnn(C5CC5)c4)C3)cc2c(=O)n1C (single isomer, unassigned) [Example 118A] |
| < 75% | < 6.00 | Cc1nc2c(-c3ccc(C(F)(F)F)cc3F)cc([C@H]3CCO[C@@H](c4cnn(C5CC5)c4)C3)cc2c(=O)n1C (single isomer, unassigned) [Example 118B] |
| < 75% | 6.00 to 7.00 | Cc1nc2c(-c3ccc(Cl)cc3F)cc([C@@H]3CCO[C@H](c4cnn(C5CC5)c4)C3)cc2c(=O)n1C (single isomer, unassigned) [Example 119A] |
| 75 to 110% | 8.00 to 9.00 | Cc1nc2c(-c3ccc(Cl)cc3F)cc([C@H]3CCO[C@@H](c4cnn(C5CC5)c4)C3)cc2c(=O)n1C (single isomer, unassigned) [Example 119B] |
| < 75% | < 6.00 | Cc1nc2c(-c3ccc(F)cc3F)nc([C@@H]3CCO[C@H](c4cnn(C5CC5)c4)C3)nc2c(=O)n1C (single isomer, unassigned) [Example 120A] |
| < 75% | 6.00 to 7.00 | Cc1nc2c(-c3ccc(F)cc3F)nc(N3C[C@@H](c4cnn(C)c4)OC(C)(C)C3)nc2c(=O)n1C (single isomer, unassigned) [Example 121A] |
| < 75% | < 6.00 | Cc1nc2c(-c3ccc(F)cc3F)nc(N3C[C@H](c4cnn(C)c4)OC(C)(C)C3)nc2c(=O)n1C (single isomer, unassigned) [Example 121B] |
| 75 to 110% | 8.00 to 9.00 | Cc1cc([C@@H]2CN(c3nc(-c4ccc(F)cc4F)c4nc(C)n(C)c(=O)c4n3)CCO2)ccn1 (single isomer, unassigned) [Example 122A] |
| < 75% | 6.00 to 7.00 | Cc1cc([C@H]2CN(c3nc(-c4ccc(F)cc4F)c4nc(C)n(C)c(=O)c4n3)CCO2)ccn1 (single isomer, unassigned) [Example 122B] |
| > 110% | 8.00 to 9.00 | Cc1cc([C@@H]2CN(c3nc(-c4cc(F)c(F)cc4F)c4nc(C)n(C)c(=O)c4n3)CCO2)ccn1 (single isomer, unassigned) [Example 123A] |
| 75 to 110% | 7.00 to 8.00 | Cc1cc([C@H]2CN(c3nc(-c4cc(F)c(F)cc4F)c4nc(C)n(C)c(=O)c4n3)CCO2)ccn1 (single isomer, unassigned) [Example 123B] |
| 75 to 110% | 7.00 to 8.00 | Cc1cc([C@@H]2CN(c3nc(-c4ccc(C(F)(F)F)cc4F)c4nc(C)n(C)c(=O)c4n3)CC(C)(C)O2)ccn1 (single isomer, unassigned) [Example 124A] |
| 75 to 110% | 8.00 to 9.00 | Cc1cc([C@H]2CN(c3nc(-c4ccc(C(F)(F)F)cc4F)c4nc(C)n(C)c(=O)c4n3)CC(C)(C)O2)ccn1 (single isomer, unassigned) [Example 124B] |
| 75 to 110% | 7.00 to 8.00 | Cc1nc2c(-c3ccc(Cl)cc3F)nc(N3CCO[C@@H](c4cnn(C)c4)C3)cc2c(=O)n1C (single isomer, unassigned) [Example 125A] |

| Emax | pEC50 | Compound |
| --- | --- | --- |
| < 75% | 7.00 to 8.00 | Cc1nc2c(-c3ccc(Cl)cc3F)nc(N3CCO[C@H](c4cnn(C)c4)C3)cc2c(=O)n1C (single isomer, unassigned) [Example 125B] |
| 75 to 110% | 8.00 to 9.00 | Cc1nc2c(-c3ccc(C(F)(F)F)cc3F)nc(N3CCO[C@@H](c4cnn(C)c4)C3)cc2c(=O)n1C (single isomer, unassigned) [Example 126A] |
| < 75% | 6.00 to 7.00 | Cc1nc2c(-c3ccc(C(F)(F)F)cc3F)nc(N3CCO[C@H](c4cnn(C)c4)C3)cc2c(=O)n1C (single isomer, unassigned) [Example 126B] |
| < 75% | 6.00 to 7.00 | Cc1nc2c(-c3ccc(C(F)(F)F)nc3)nc(N3CCO[C@@H](c4cnn(C)c4)C3)cc2c(=O)n1C (single isomer, unassigned) [Example 127A] |
| < 75% | < 6.00 | Cc1nc2c(-c3ccc(C(F)(F)F)nc3)nc(N3CCO[C@H](c4cnn(C)c4)C3)cc2c(=O)n1C (single isomer, unassigned) [Example 127B] |
| 75 to 110% | 6.00 to 7.00 | Cc1cc([C@H]2CN(c3cc4c(=O)n(C)c(C)nc4c(-c4ccc(Cl)cc4F)n3)CC3(CC3)O2)ccn1 (single isomer, unassigned) [Example 128B] |
| 75 to 110% | 7.00 to 8.00 | Cc1nc2c(-c3ccc(F)cc3F)nc(N3CCO[C@@H](c4cnn(C)c4)C3)cc2c(=O)n1C (single isomer, unassigned) [Example 129A] |
| < 75% | 7.00 to 8.00 | Cc1nc2c(-c3ccc(F)cc3F)nc(N3CCO[C@H](c4cnn(C)c4)C3)cc2c(=O)n1C (single isomer, unassigned) [Example 129B] |
| < 75% | 7.00 to 8.00 | Cc1nc2c(-c3cc(F)c(F)cc3F)nc(N3CCO[C@@H](c4cnn(C)c4)C3)cc2c(=O)n1C (single isomer, unassigned) [Example 130A] |
| < 75% | 6.00 to 7.00 | Cc1nc2c(-c3cc(F)c(F)cc3F)nc(N3CCO[C@H](c4cnn(C)c4)C3)cc2c(=O)n1C (single isomer, unassigned) [Example 130B] |
| 75 to 110% | 8.00 to 9.00 | Cc1nc2c(-c3ccc(Cl)cc3F)nc(N3CCO[C@H](c4cnn(C5CC5)c4)C3)cc2c(=O)n1C (single isomer, unassigned) [Example 131A] |
| < 75% | 6.00 to 7.00 | Cc1nc2c(-c3ccc(Cl)cc3F)nc(N3CCO[C@@H](c4cnn(C5CC5)c4)C3)cc2c(=O)n1C (single isomer, unassigned) [Example 131B] |
| 75 to 110% | 8.00 to 9.00 | Cc1nc2c(-c3ccc(C(F)(F)F)cc3F)nc(N3CCO[C@H](c4cnn(C5CC5)c4)C3)cc2c(=O)n1C (single isomer, unassigned) [Example 132A] |
| < 75% | 6.00 to 7.00 | Cc1nc2c(-c3ccc(C(F)(F)F)cc3F)nc(N3CCO[C@@H](c4cnn(C5CC5)c4)C3)cc2c(=O)n1C (single isomer, unassigned) [Example 132B] |
| 75 to 110% | 7.00 to 8.00 | Cc1nc2c(-c3cc(F)c(F)cc3F)nc(N3CCO[C@H](c4cnn(C5CC5)c4)C3)cc2c(=O)n1C (single isomer, unassigned) [Example 133A] |
| < 75% | 6.00 to 7.00 | Cc1nc2c(-c3cc(F)c(F)cc3F)nc(N3CCO[C@@H](c4cnn(C5CC5)c4)C3)cc2c(=O)n1C (single isomer, unassigned) [Example 133B] |
| 75 to 110% | 7.00 to 8.00 | Cc1nc2c(-c3ccc(C(F)(F)F)cc3F)nc(N3C[C@@H](c4cnn(C)c4)OC(C)(C)C3)cc2c(=O)n1C (single isomer, unassigned) [Example 134A] |
